One test concerns the target T1, human FPRL2 (Homo sapiens, UniProt P25089).
T1 construct: expressed in transfected cells; host or cells: HEK293 (HEK293-hFPRL2-Gα16)
T1 sequence (P25089 1-353): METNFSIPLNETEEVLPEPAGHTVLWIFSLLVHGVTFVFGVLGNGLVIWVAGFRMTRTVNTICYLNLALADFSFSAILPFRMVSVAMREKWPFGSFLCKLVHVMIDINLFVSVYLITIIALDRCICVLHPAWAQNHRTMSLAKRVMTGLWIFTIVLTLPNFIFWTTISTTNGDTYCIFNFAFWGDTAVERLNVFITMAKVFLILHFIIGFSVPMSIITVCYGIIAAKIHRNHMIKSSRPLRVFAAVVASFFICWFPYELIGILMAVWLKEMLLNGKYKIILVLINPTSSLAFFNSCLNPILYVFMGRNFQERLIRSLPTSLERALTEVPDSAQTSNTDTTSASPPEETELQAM
Put plainly: Intracellular calcium measurements (FLIPR), agonistic activity in HEK293-hFPRL2-Gα16 cells. Type of test: cell-based. As to conditions: Fluo-4 calcium FLIPR, normalized to GLY14-Humanin 100 nM. The method in brief: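 Peak values after baseline subtraction are expressed relative to 100 nM Gly14-Humanin; compounds diluted in assay buffer from 10 mM DMSO stocks.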

Another test concerns the target T2, human ALX receptor (Homo sapiens, UniProt P25090).
T2 construct: expressed in transfected cells; host or cells: HEK293 (HEK293-hALXR-Gα16)
T2 sequence (P25090 1-351): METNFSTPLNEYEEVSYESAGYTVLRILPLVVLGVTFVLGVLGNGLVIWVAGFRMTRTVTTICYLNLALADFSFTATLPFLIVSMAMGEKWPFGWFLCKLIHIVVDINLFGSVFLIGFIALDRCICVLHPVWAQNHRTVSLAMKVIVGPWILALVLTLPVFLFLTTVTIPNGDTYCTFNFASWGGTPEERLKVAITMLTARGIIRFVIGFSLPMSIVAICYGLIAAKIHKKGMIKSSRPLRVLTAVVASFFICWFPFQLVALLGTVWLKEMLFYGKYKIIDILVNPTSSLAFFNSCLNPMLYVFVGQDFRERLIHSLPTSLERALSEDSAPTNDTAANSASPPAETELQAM
The test is described as follows: Intracellular calcium measurements (FLIPR), agonistic activity in HEK293-hALXR-Gα16 cells. Type of test: cell-based. As to conditions: Fluo-4 calcium FLIPR, normalized to WKYMVm 10 nM. The essentials:
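Agonist-induced calcium flux was recorded by FLIPR (488/540 nm) in HEK293-hALXR-Gα16 cells pre-loaded with Fluo-4 AM (1 μM, 60 min, 37°C). Peak signal above baseline, after subtracting buffer addition, was expressed relative to WKYMVm at 10 nM final.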

SMILES strings stand for the structures.

`CN(C)CCNC(=O)[C@H]1[C@H](C(=O)NCc2ccc(Br)cc2)[C@@H]2C=C[C@H]1C21CC1` (racemic) [Example 274, (5R*)—N^5-(4-Bromophenyl-methyl)-(6R*)—N^6-(2-dimethylamino-ethyl)-(4S*,7R*)-[4,7-ethenylene-spiro[2.4]heptane]-5,6-dicarboxamide]: the results for the EC50 on human FPRL2 and on human ALX receptor were 1170 nM and 290 nM, respectively.
For `CC(C)(C)C1CCC(NC(=O)C2C(C(=O)NCCCCN3CCCC3)C3C=CC2C32CC2)CC1` (stereo not drawn) [Example 342, (5R*)—N^5-(4-tert-Butyl-cyclohexyl)-(6R*)—N^6-(4-pyrrolidino-butyl)-(4S*,7R*)-[4,7-ethenylene-spiro[2.4]heptane]-5,6-dicarboxamide], in that order: 100 nM and above 2390 nM.
The like results for `Cc1ccc(F)c(CNC(=O)[C@H]2[C@H](C(=O)NCCCCN3CCCC3)[C@H]3C=C[C@@H]2C32CC2)c1Cl` (racemic) [Example 373, (5R*)—N^5-(2-Chloro-6-fluoro-3-methylphenyl-methyl)-(6R*)—N^6-(4-pyrrolidino-butyl)-(4S*,7R*)-[4,7-ethenylene-spiro[2.4]heptane]-5,6-dicarboxamide] were, in that order, 478 nM and above 25000 nM.
The like results for `COc1ccc(CNC(=O)[C@H]2[C@H](C(=O)NCCCCN3CCCC3)[C@H]3C=C[C@@H]2C32CC2)cc1Cl` (racemic) [Example 374, (5R*)—N^5-(3-Chloro-4-methoxyphenyl-methyl)-(6R*)—N^6-(4-pyrrolidino-butyl)-(4S*,7R*)-[4,7-ethenylene-spiro[2.4]heptane]-5,6-dicarboxamide] were, in that order, 237 nM and 2620 nM.
As to `NCCCCCNC(=O)[C@H]1[C@H](C(=O)Nc2ncc(Br)s2)[C@@H]2CC[C@H]1C21CC1` [Example 334, (5R)—N^5-(5-Bromo-thiazol-2-yl)-(6R)—N^6-(5-amino-pentyl)-(4S,7R)-[4,7-ethylene-spiro[2.4]heptane]-5,6-dicarboxamide], the figures for the EC50 on human FPRL2 and at human ALX receptor were 230 nM and 0.45 nM, respectively.
As to `O=C(NCCCCN1CCCC1)C1C(C(=O)Nc2ccc(Cl)nc2)C2C=CC1C21CC1` (racemic) [Example 116, (5R*)—N^5-(2-Chloro-pyridin-5-yl)-(6R*)—N^6-(4-pyrrolidin-1-yl-butyl)-(4S*,7R*)-[4,7-ethenylene-spiro[2.4]heptane]-5,6-dicarboxamide], the EC50 on human FPRL2 was determined as 891 nM; at human ALX receptor it was 7.8 nM.
The like results for `Cc1[nH]ncc1CCCNC(=O)[C@H]1[C@H](C(=O)Nc2ccc(Br)cc2)[C@@H]2C=C[C@H]1C21CC1` (racemic) [Example 88, (5R*)—N^5-(4-Bromophenyl)-(6R*)—N^6-(3-(5-methyl-1H-pyrazol-4-yl)-propyl)-(4S*,7R*)-[4,7-ethenylene-spiro[2.4]heptane]-5,6-dicarboxamide] were, in that order, 9420 nM and 168 nM.
For `COc1cc(F)c(CNC(=O)[C@H]2[C@H](C(=O)NCCCCN3CCCC3)[C@H]3C=C[C@@H]2C32CC2)c(F)c1` (racemic) [Example 226, (5R*)—N^5-(2,6-Difluoro-4-methoxy-phenyl-methyl)-(6R*)—N^6-(4-pyrrolidin-1-yl-butyl)-(4S*,7R*)-[4,7-ethenylene-spiro[2.4]heptane]-5,6-dicarboxamide], in that order: 356 nM and 912 nM.
For `O=C(NC1CC1)[C@H]1[C@H](C(=O)Nc2ccc(Br)cc2)[C@@H]2C=C[C@H]1C21CC1` (racemic) [Example 73, (5R*)—N^5-(4-Bromophenyl)-(6R*)—N^6-(cyclopropyl)-(4S*,7R*)-[4,7-ethenylene-spiro[2.4]heptane]-5,6-dicarboxamide], in that order: 4610 nM and 63 nM.
As to `O=C(NCCCCN1CCCC1)[C@H]1[C@H](C(=O)Nc2ccc3scnc3c2)[C@@H]2C=C[C@H]1C21CC1` (racemic) [Example 117, (5R*)—N^5-(Benzothiazol-5-yl)-(6R*)—N^6-(4-pyrrolidin-1-yl-butyl)-(4S*,7R*)-[4,7-ethenylene-spiro[2.4]heptane]-5,6-dicarboxamide], the EC50 came out at 359 nM at human FPRL2 and 10 nM on human ALX receptor.
Regarding `COC(=O)CCNC(=O)[C@H]1[C@H](C(=O)Nc2ccc(Br)cc2)[C@@H]2C=C[C@H]1C21CC1` (racemic) [Example 60, (5R*)—N^5-(4-Bromophenyl)-(6R*)—N^6-(2-(methoxy-carbonyl)-ethyl)-(4S*,7R*)-[4,7-ethenylene-spiro[2.4]heptane]-5,6-dicarboxamide], the figures for the EC50 at human FPRL2 and at human ALX receptor were 1480 nM and 22 nM, respectively.
The like results for `CC(C)(C)OC(=O)NCCCCCNC(=O)[C@H]1[C@H](C(=O)Nc2ccc(Br)cc2)[C@@H]2C=C[C@H]1C21CC1` (racemic) [Example 68, (5R*)—N^5-(4-Bromophenyl)-(6R*)—N^6-(5-tert-butoxycarbonyl-amino-pentyl)-(4S*,7R*)-[4,7-ethenylene-spiro[2.4]heptane]-5,6-dicarboxamide] were, in that order, 2170 nM and 27 nM.
For `O=C(NCCCCN1CCCC1)[C@H]1[C@H](C(=O)NCc2cccc(OC(F)F)c2)[C@@H]2C=C[C@H]1C21CC1` (racemic) [Example 360, (5R*)—N^5-(3-Difluoromethoxyphenyl-methyl)-(6R*)—N^6-(4-pyrrolidino-butyl)-(4S*,7R*)-[4,7-ethenylene-spiro[2.4]heptane]-5,6-dicarboxamide], in that order: 530 nM and 8700 nM.
The like results for `NCCCCNC(=O)[C@H]1[C@H](C(=O)Nc2ncc(Br)s2)[C@@H]2CC[C@H]1C21CC1` [Example 335, (5R)—N^5-(5-Bromo-thiazol-2-yl)-(6R)—N^6-(4-amino-butyl)-(4S,7R)-[4,7-ethylene-spiro[2.4]heptane]-5,6-dicarboxamide] were, in that order, 1300 nM and 0.5 nM.
Consider `O=C(NCCCC(=O)N1CCCC1)[C@H]1[C@H](C(=O)Nc2ccc(Br)cc2)[C@@H]2C=C[C@H]1C21CC1` [Example 214, (5R)—N^5-(4-Bromophenyl)-(6R)—N^6-(4-pyrrolidino-4-oxobutyl)-(4S,7R)-[4,7-ethenylene-spiro[2.4]heptane]-5,6-dicarboxamide], for which the EC50 on human FPRL2 amounted to 338 nM; on human ALX receptor, 6.1 nM.
The like results for `CN(C)C(=O)CCC(=O)NC[C@H]1[C@H](C(=O)Nc2ccc(Br)cc2)[C@@H]2C=C[C@H]1C21CC1` (racemic) [Example 164, (5R*)—N^5-(4-Bromo-phenyl)-(6R*)-6-[(3-(N,N-dimethyl-aminocarbonyl)-propionyl-amino)-methyl]-(4S*,7R*)-[4,7-ethenylene-spiro[2.4]heptane]-5-carboxamide] were, in that order, 6820 nM and 80 nM.
The like results for `O=C(NC[C@H]1[C@H](C(=O)Nc2ccc(Br)cc2)[C@@H]2C=C[C@H]1C21CC1)c1cccc(F)c1Cl` (racemic) [Example 176, (5R*)—N^5-(4-Bromo-phenyl)-(6R*)-6-{[(2-chloro-3-fluoro-phenyl-carbonyl)-amino]-methyl}-(4S*,7R*)-[4,7-ethenylene-spiro[2.4]heptane]-5-carboxamide] were, in that order, 2230 nM and 158 nM.
The like results for `Cc1csc(NC(=O)[C@H]2[C@H](C(=O)NCCCCN3CCCC3)[C@H]3C=C[C@@H]2C32CC2)n1` (racemic) [Example 256, (5R*)—N^5-(4-Methyl-thiazol-2-yl)-(6R*)—N^6-(4-pyrrolidin-1-yl-butyl)-(4S*,7R*)-[4,7-ethenylene-spiro[2.4]heptane]-5,6-dicarboxamide] were, in that order, 348 nM and 6720 nM.
As for `Cn1c(CCC(=O)NC[C@H]2[C@H](C(=O)Nc3ccc(Br)cc3)[C@@H]3C=C[C@H]2C32CC2)nc2ccccc21` (racemic) [Example 185, (5R*)—N^5-(4-Bromo-phenyl)-(6R*)-6-[(3-(1-methyl-1H-benzoimidazol-2-yl)-propionylamino)-methyl]-(4S*,7R*)-[4,7-ethenylene-spiro[2.4]heptane]-5-carboxamide], the EC50 was 709 nM on human FPRL2 and 336 nM on human ALX receptor.
Turning to `CC(C)CNC(=O)C1C(C(=O)Nc2ncc(Br)s2)C2C=CC1C21CC1` (stereo not drawn) [Example 245, (5R*)—N^5-(5-Bromo-thiazol-2-yl)-(6R*)—N^6-(isobutyl)-(4S*,7R*)-[4,7-ethenylene-spiro[2.4]heptane]-5,6-dicarboxamide], the EC50 was found to be 8240 nM on human FPRL2 and 3.9 nM on human ALX receptor.

For the origin of these results see patent US8563714B2, “Bridged spiro [2.4] heptane derivatives as ALX receptor and/or FPRL2 agonists” (Actelion Pharmaceuticals Ltd., priority 2009, dated 2013).
